Source: patent publication US20200237793A1, “IMMUNOMODULATORY OLIGOSACCHARIDES” (The Regents of the University of California, priority 2017, published 2020)

Tests used:
[1] = system: RAW 264.7 cells; experiment: Pro-inflammatory cytokine mRNA expression (RT-PCR) in LPS-stimulated macrophages; format: cell-based, murine
Description: RAW246.7 cells were exposed to LPS either alone or in combination with either pooled human milk oligosaccharides (HMOs), or 3′-sialyllactose (3′SL) or 2′-fucosyllactose (2′FL). After 6 hours, IL-6 (A) and IL-1β (B) mRNA levels were measured by RT-PCR and are plotted as mean±standard deviation (n=8) relative the respective mRNA levels in cells that were exposed to LPS alone (**p<0.01; ***p<0.001). HMOs are a group of more than 150 different structurally distinct oligosaccharides and their composition follows a basic structural blueprint (C), containing five monosaccharide building blocks: glucose (dark gray circle), galactose (light gray circle), N-acetylglucosamine (dark gray square), fucose (gray triangle) and sialic acid (gray diamond). 3′SL contains lactose with sialic acid at the terminal end; 2′FL contains lactose with fucose at the terminal end.
HMOs were first isolated and purified from pooled human donor milk (pHMO) by using polymixin B affinity chromatography to remove any lipopolysaccharide (LPS) contamination. RAW 264.7 cells, a murine macrophage cell line, were then incubated with LPS (10 ng/mL) and pHMO (500 μg/mL) for 6 hours. RT-PCR was used to measure cytokine mRNA expression.
A multi-dimensional chromatography approach was used that separates pHMO first by charge and then by size. […]

[2] = system: bone marrow derived macrophages; experiment: Pro-inflammatory cytokine expression in primary mouse cells; format: cell-based
Text: (§1) Accordingly, the results with 3′SL translate to primary cells as well as to human macrophages.

[3] = system: THP-1 monocytic cell line; experiment: Pro-inflammatory cytokine expression in human monocytic cell line; format: cell-based; settings: human THP-1
Text: as §1

[4] = system: collagen antibody-induced arthritis (CAIA) model; experiment: Collagen antibody-induced arthritis (CAIA) model; format: in vivo, BALB/c mice
Description: Macrophages and the pro-inflammatory cytokines IL-6 and IL-1β are known to perform a major role in the development and progression of joint destruction in animal models and patients with RA. […] Next, it was asked whether or not the in vitro results translate to an in vivo model. 3′SL efficacy in a collagen antibody-induced arthritis (CAIA) model was tested in mice. In the CAIA model, arthritis is induced by systemic administration of a cocktail of monoclonal antibodies that target various regions of collagen type II, which is one of the major constituents of articular cartilage matrix proteins, followed by the administration of endotoxin (LPS) on day 3. The high uptake rate in the CAIA model and the capacity to synchronize the development of arthritis from the time of antibody injection, makes this a relatively straightforward model that is used to address questions of pathogenic mechanisms and to screen candidate therapeutic agents.
8-week old female BALB/c mice were injected with 1.5 mg of Arthrogen-CIA monoclonal antibody cocktail (Chondrex, Inc.). Three days later, the mice were injected with 25 μg of LPS. Beginning with the time of LPS administration and followed for the next 11 consecutive days, mice were orally gavaged thrice daily with either 3′SL (20 mg in saline) or saline alone as control. With the tester blinded to the study groups, arthritis in each limb was determined once per day. […] By adding together, the scores of all four limbs, the maximum score per mouse is 28. In addition, a caliper was placed across the ankle joint at the widest point to measure ankle thickness in both hind limbs daily. 14 days after antibody cocktail administration, mice were euthanized and hind paws collected and processed for histology. H&E—as well as Toluidine blue-stained sections were scored from 0 to 4 for inflammation, bone erosion and cartilage depletion based on a previously validated scoring system.

[5] = hind paws, day 14, score 0 to 4, oral 20 mg thrice daily
[6] = oral gavage 20 mg in saline thrice daily, from LPS administration, vs saline

For `CC(=O)N[C@H]1[C@H]([C@H](O)[C@H](O)CO)O[C@@](O[C@H]2[C@@H](O)[C@@H](CO)O[C@@H](O[C@H]3[C@H](O)[C@@H](O)C(O)O[C@@H]3CO)[C@@H]2O)(C(=O)O)C[C@@H]1O` (stereo partly shown) [3′SL, 3′-sialyllactose], the “IL-6 and IL-1β mRNA expression” value ([1]; LPS-activated macrophages, individual oligosaccharides) was “most effective in reducing”, the “IC50 (reducing IL-6 and IL-1β mRNA expression)” value ([1]; dose-range finding studies) was “around 15 μg/mL” and the pro-inflammatory cytokine expression [2] was “reduced”. For the same compound, the pro-inflammatory cytokine expression [3] was “reduced”, the adverse effects ([4]; 14-day study period, oral 20 mg thrice daily) was “No adverse effects were observed” and the “histology score for cartilage damage” value [4, 5] was “significantly lower”. The “histology score for erosion” value [4, 5] was “significantly lower”, the “histology score for inflammation” value [4, 5] was “significantly lower” and the “Baseline-corrected ankle thickness (paw swelling)” value [4, 6] was “significantly reduced”. The “clinical index score 28” value [4, 6] was “significantly reduced”.
